Measurements taken from patent US20250230147A1, “LACTAMS AS CBL-B INHIBITORS” (Genentech, Inc., priority 2021, published 2025).

Legend:
Cbl-b = Cbl-b (Homo sapiens (Human), UniProt Q13191); experiment: Cbl-b LCK Ub TR-FRET assay (Cbl-b Lck HTRF); assay type: biochemical
Method in brief: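 TR-FRET (340 nm excitation, 615/665 nm emission) read after adding HA-ubiquitin–UBE2D2 thioester, anti-HA-D2 and streptavidin-Eu. Beforehand, compounds incubated 60 min with biotinylated Cbl-b, then 90 min with His-LCK and ATP (1 mM in 2× mix); IC50 from 10 concentrations, DMSO high and no-LCK low controls.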

c-Cbl = c-Cbl (Homo sapiens (Human), UniProt P22681); experiment: C-Cbl LCK Ub TR-FRET assay (c-cbl Lck HTRF); assay type: biochemical; details: for (fold-selectivity): C-cbl Lck HTRF IC50 relative to Cbl-b Lck HTRF IC50
Method in brief: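 Signal is read once the detection mix has stood 20 min at ambient temperature. Curves are anchored by DMSO as maximum and by omission of LCK as minimum.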

Chain of Cbl-b (Q13191 40-426): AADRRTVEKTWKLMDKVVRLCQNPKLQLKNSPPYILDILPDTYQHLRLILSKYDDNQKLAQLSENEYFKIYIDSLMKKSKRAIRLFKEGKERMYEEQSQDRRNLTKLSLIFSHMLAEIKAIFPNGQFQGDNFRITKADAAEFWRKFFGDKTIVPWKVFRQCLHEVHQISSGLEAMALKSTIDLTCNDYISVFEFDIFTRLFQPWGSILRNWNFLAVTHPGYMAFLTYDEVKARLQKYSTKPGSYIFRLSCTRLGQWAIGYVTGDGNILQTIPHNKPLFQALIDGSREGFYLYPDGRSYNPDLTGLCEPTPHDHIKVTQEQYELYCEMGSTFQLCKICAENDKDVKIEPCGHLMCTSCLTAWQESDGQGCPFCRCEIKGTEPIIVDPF
Chain of c-Cbl (P22681 47-435): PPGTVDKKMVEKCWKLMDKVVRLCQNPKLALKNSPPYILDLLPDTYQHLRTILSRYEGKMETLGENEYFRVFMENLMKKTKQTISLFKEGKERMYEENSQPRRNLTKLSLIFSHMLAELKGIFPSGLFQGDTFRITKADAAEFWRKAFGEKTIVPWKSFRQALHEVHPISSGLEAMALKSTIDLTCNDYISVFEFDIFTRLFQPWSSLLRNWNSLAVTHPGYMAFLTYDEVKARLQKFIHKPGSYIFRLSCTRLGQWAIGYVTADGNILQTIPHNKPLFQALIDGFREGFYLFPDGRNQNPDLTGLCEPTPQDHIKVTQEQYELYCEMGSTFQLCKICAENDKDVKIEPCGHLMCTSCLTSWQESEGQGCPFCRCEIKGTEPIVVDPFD

Which IC50 (Cbl-b) does the source give for `CC(C)Nc1cc([C@H](C)Cc2nncn2C)cc(N2Cc3c(cc(CN4CCC5(CC5)C4)cc3C(F)(F)F)C2=O)n1.O=CO` [Compound 55, (R)-6-((5-azaspiro[2.4]heptan-5-yl)methyl)-2-(6-(isopropylamino)-4-(1-(4-methyl-4H-1,2,4-triazol-3-yl)propan-2-yl)pyridin-2-yl)-4-(trifluoromethyl)isoindolin-1-one formate] here?
The IC50 was 16 nM.

And the IC50 (c-Cbl)?
Its IC50 is 26 nM.

And the “(fold-selectivity)” value (c-Cbl)?
Its value is 1.6x.

How did the IC50 (Cbl-b) turn out when `Cn1cnnc1CC1(c2cc(OC3CCCC3)nc(N3Cc4c(cccc4C(F)(F)F)C3=O)c2)COC1` [Compound 381, 2-(6-(cyclopentyloxy)-4-(3-((4-methyl-4H-1,2,4-triazol-3-yl)methyl)oxetan-3-yl)pyridin-2-yl)-4-(trifluoromethyl)isoindolin-1-one] was run?
Its IC50 is 1100 nM.

And the IC50 (c-Cbl)?
The IC50 was 7300 nM.

And the “(fold-selectivity)” value (c-Cbl)?
The value was “(5.9x)”.

How did the IC50 (Cbl-b) turn out when `Cn1cnnc1[C@H](F)C1(c2cccc(N3Cc4c(cc(CN)cc4C(F)(F)F)C3=O)c2)CCC1` [Compound 386, (R)-6-(aminomethyl)-2-(3-(1-(fluoro(4-methyl-4H-1,2,4-triazol-3-yl)methyl)cyclobutyl)phenyl)-4-(trifluoromethyl)isoindolin-1-one] was run?
Its IC50 is 32 nM.

What about the IC50 (c-Cbl) of the same compound?
Its IC50 is 31 nM.

And the “(fold-selectivity)” value (c-Cbl)?
Its value is “(0.98x)”.

Which IC50 (Cbl-b) does the source give for `CC(C)[C@@H]1CNCCN1Cc1cc2c(c(C(F)(F)F)c1)CN(c1cccc(C3([C@H](F)c4nncn4C)COC3)c1)C2=O` [Compound 95, 2-(3-(3-((S)-fluoro(4-methyl-4H-1,2,4-triazol-3-yl)methyl)oxetan-3-yl)phenyl)-6-(((R)-2-isopropylpiperazin-1-yl)methyl)-4-(trifluoromethyl)isoindolin-1-one] here?
The IC50 was 270 nM.

And the IC50 (c-Cbl)?
The IC50 was 410 nM.

And the “(fold-selectivity)” value (c-Cbl)?
The value was 1.5x.

How did the IC50 (Cbl-b) turn out when `CC(C)[C@H]1CN(C)CCN1Cc1cc2c(c(C(F)(F)F)c1)CN(c1cccc(C3([C@H](F)c4n[nH]cc4C(F)(F)F)COC3)c1)C2=O` [Compound 376, 2-(3-(3-((S)-fluoro(4-(trifluoromethyl)-1H-pyrazol-3-yl)methyl)oxetan-3-yl)phenyl)-6-(((S)-2-isopropyl-4-methylpiperazin-1-yl)methyl)-4-(trifluoromethyl)isoindolin-1-one] was run?
Its IC50 is 20000 nM.

What about the IC50 (c-Cbl) of the same compound?
The IC50 was 20000 nM.

What about the “(fold-selectivity)” value (c-Cbl) of the same compound?
The value was “(1.0x)”.

`Cn1cnnc1[C@@H](F)C1(c2cccc(N3Cc4c(cc(CN5CCC5)cc4C(F)(F)F)C3=O)c2)COC1` [Compound 71, (S)-6-(azetidin-1-ylmethyl)-2-(3-(3-(fluoro(4-methyl-4H-1,2,4-triazol-3-yl)methyl)oxetan-3-yl)phenyl)-4-(trifluoromethyl)isoindolin-1-one] was tested. Which IC50 (Cbl-b) did it give?
The IC50 was 240 nM.

And the IC50 (c-Cbl)?
Its IC50 is 400 nM.

What about the “(fold-selectivity)” value (c-Cbl) of the same compound?
The value was 1.7x.

Which results are given for `CNS(=O)(=O)CCNc1cc(C2(Cc3nncn3C)CCC2)cc(N2Cc3c(cc(CNC4(C)CCC4)cc3C(F)(F)F)C2=O)n1` [Compound 312, N-methyl-2-((4-(1-((4-methyl-4H-1,2,4-triazol-3-yl)methyl)cyclobutyl)-6-(6-(((1-methylcyclobutyl)amino)methyl)-1-oxo-4-(trifluoromethyl)isoindolin-2-yl)pyridin-2-yl)amino)ethanesulfonamide]?
IC50 (Cbl-b): 70 nM; IC50 (c-Cbl): 110 nM; (fold-selectivity) (c-Cbl): (1.5x)

For `Cn1cnnc1[C@@H](F)C1(c2cccc(N3Cc4c(cc(CN5CC6(C5)CS(=O)(=O)C6)cc4C(F)(F)F)C3=O)c2)COC1` [Compound 182, (S)-6-((2,2-dioxido-2-thia-6-azaspiro[3.3]heptan-6-yl)methyl)-2-(3-(3-(fluoro(4-methyl-4H-1,2,4-triazol-3-yl)methyl)oxetan-3-yl)phenyl)-4-(trifluoromethyl)isoindolin-1-one], which IC50 (Cbl-b) is on record?
Its IC50 is 170 nM.

And the IC50 (c-Cbl)?
Its IC50 is 430 nM.

And the “(fold-selectivity)” value (c-Cbl)?
The value was 2.6x.

How did the IC50 (Cbl-b) turn out when `Cn1cnnc1[C@H](F)C1(c2cccc(N3Cc4c(cc(CN5CC6(C5)CS(=O)(=O)C6)cc4C(F)(F)F)C3=O)c2)COC1` [Compound 181, (R)-6-((2,2-dioxido-2-thia-6-azaspiro[3.3]heptan-6-yl)methyl)-2-(3-(3-(fluoro(4-methyl-4H-1,2,4-triazol-3-yl)methyl)oxetan-3-yl)phenyl)-4-(trifluoromethyl)isoindolin-1-one] was run?
Its IC50 is 52 nM.

And the IC50 (c-Cbl)?
Its IC50 is 110 nM.

And the “(fold-selectivity)” value (c-Cbl)?
Its value is 2.1x.

`C[C@@H](N)c1cc2c(c(C(F)(F)F)c1)CN(c1cccc(C3(Cc4nncn4C)CC(F)(F)C3)c1)C2=O` [Compound 385, (R)-6-(1-aminoethyl)-2-(3-(3,3-difluoro-1-((4-methyl-4H-1,2,4-triazol-3-yl)methyl)cyclobutyl)phenyl)-4-(trifluoromethyl)isoindolin-1-one] was tested. Which IC50 (Cbl-b) did it give?
The IC50 was 24 nM.

And the IC50 (c-Cbl)?
Its IC50 is 22 nM.

What about the “(fold-selectivity)” value (c-Cbl) of the same compound?
Its value is “(0.93x)”.

For `Cn1cnnc1CC1(c2cc(-c3ccc4ccccc4c3)nc(N3Cc4c(cc(CNC5(C)CCC5)cc4C(F)(F)F)C3=O)c2)CCC1` [Compound 350, 2-(4-(1-((4-methyl-4H-1,2,4-triazol-3-yl)methyl)cyclobutyl)-6-(naphthalen-2-yl)pyridin-2-yl)-6-(((1-methylcyclobutyl)amino)methyl)-4-(trifluoromethyl)isoindolin-1-one], which IC50 (Cbl-b) is on record?
The IC50 was 28 nM.

And the IC50 (c-Cbl)?
The IC50 was 16 nM.

What about the “(fold-selectivity)” value (c-Cbl) of the same compound?
Its value is “(0.57x)”.

Which IC50 (Cbl-b) does the source give for `Cn1cnnc1CC1(c2cc(NC3CCCC3)cc(N3Cc4c(cc(CNC5(C)CCC5)cc4C(F)(F)F)C3=O)c2)COC1` [Compound 480, 2-(3-(cyclopentylamino)-5-(3-((4-methyl-4H-1,2,4-triazol-3-yl)methyl)oxetan-3-yl)phenyl)-6-(((1-methylcyclobutyl)amino)methyl)-4-(trifluoromethyl)isoindolin-1-one] here?
The IC50 was 59 nM.

What about the IC50 (c-Cbl) of the same compound?
Its IC50 is 180 nM.

And the “(fold-selectivity)” value (c-Cbl)?
Its value is “(2.8x)”.

How did the IC50 (Cbl-b) turn out when `Cn1cnnc1[C@H](F)C1(c2cccc(N3Cc4c(cc(CNC5(C)CCC5)cc4C(F)(F)F)C3=O)c2)COC1` [Compound 230, (R)-2-(3-(3-(fluoro(4-methyl-4H-1,2,4-triazol-3-yl)methyl)oxetan-3-yl)phenyl)-6-(((1-methylcyclobutyl)amino)methyl)-4-(trifluoromethyl)isoindolin-1-one] was run?
Its IC50 is 13 nM.

And the IC50 (c-Cbl)?
The IC50 was 11 nM.

And the “(fold-selectivity)” value (c-Cbl)?
The value was “(0.84x)”.

What does the source list for `COCC1CCN(Cc2cc3c(c(C(F)(F)F)c2)CN(c2cccc(C4([C@@H](F)c5nncn5C)COC4)c2)C3=O)CC1` [Compound 145, (R)-2-(3-(3-(fluoro(4-methyl-4H-1,2,4-triazol-3-yl)methyl)oxetan-3-yl)phenyl)-6-((4-(methoxymethyl)piperidin-1-yl)methyl)-4-(trifluoromethyl)isoindolin-1-one]?
IC50 (Cbl-b): 130 nM; IC50 (c-Cbl): 180 nM; (fold-selectivity) (c-Cbl): 1.4x

Which IC50 (Cbl-b) does the source give for `CC(C)[C@H]1CN(C)CCN1Cc1cc2c(c(C(F)(F)F)c1)CN(c1cc(C3(Cc4nncn4C)CC(F)(F)C3)cc(N(C)C)n1)C2=O` [Compound 280, (S)-2-(4-(3,3-difluoro-1-((4-methyl-4H-1,2,4-triazol-3-yl)methyl)cyclobutyl)-6-(dimethylamino)pyridin-2-yl)-6-((2-isopropyl-4-methylpiperazin-1-yl)methyl)-4-(trifluoromethyl)isoindolin-1-one] here?
The IC50 was 12 nM.

And the IC50 (c-Cbl)?
Its IC50 is 11 nM.

What about the “(fold-selectivity)” value (c-Cbl) of the same compound?
The value was “(0.96x)”.

How did the IC50 (Cbl-b) turn out when `Cn1cnnc1[C@H](F)C1(c2cccc(N3Cc4c(Br)cccc4C3=O)c2)COC1` [Compound 203, (R)-4-bromo-2-(3-(3-(fluoro(4-methyl-4H-1,2,4-triazol-3-yl)methyl)oxetan-3-yl)phenyl)isoindolin-1-one] was run?
The IC50 was 200 nM.

And the IC50 (c-Cbl)?
Its IC50 is 400 nM.

What about the “(fold-selectivity)” value (c-Cbl) of the same compound?
The value was 2.0x.

`Cc1cnnn1CC1(c2cccc(N3Cc4c(cc(CN5CCN(C)C[C@@H]5C(C)C)cc4C(F)(F)F)C3=O)c2)COC1` [Compound 258, (S)-6-((2-isopropyl-4-methylpiperazin-1-yl)methyl)-2-(3-(3-((5-methyl-1H-1,2,3-triazol-1-yl)methyl)oxetan-3-yl)phenyl)-4-(trifluoromethyl)isoindolin-1-one] was tested. Which IC50 (Cbl-b) did it give?
Its IC50 is 22 nM.

What about the IC50 (c-Cbl) of the same compound?
The IC50 was 31 nM.

What about the “(fold-selectivity)” value (c-Cbl) of the same compound?
Its value is “(1.4x)”.

Which results are given for `COCCOCCNc1cc(C2(Cc3nncn3C)CCC2)cc(N2Cc3c(cc(CNC4(C)CCC4)cc3C(F)(F)F)C2=O)n1` [Compound 336, 2-(6-((2-(2-methoxyethoxy)ethyl)amino)-4-(1-((4-methyl-4H-1,2,4-triazol-3-yl)methyl)cyclobutyl)pyridin-2-yl)-6-(((1-methylcyclobutyl)amino)methyl)-4-(trifluoromethyl)isoindolin-1-one]?
IC50 (Cbl-b): 33 nM; IC50 (c-Cbl): 23 nM; (fold-selectivity) (c-Cbl): (0.70x)

`Cn1cnnc1C(F)(F)C1(c2cccc(N3Cc4c(cc(CNC5(C)CCC5)cc4C(F)(F)F)C3=O)c2)COC1` [Compound 287, 2-(3-(3-(difluoro(4-methyl-4H-1,2,4-triazol-3-yl)methyl)oxetan-3-yl)phenyl)-6-(((1-methylcyclobutyl)amino)methyl)-4-(trifluoromethyl)isoindolin-1-one] was tested. Which IC50 (Cbl-b) did it give?
Its IC50 is 32 nM.

And the IC50 (c-Cbl)?
Its IC50 is 43 nM.

What about the “(fold-selectivity)” value (c-Cbl) of the same compound?
The value was “(1.4x)”.

Which IC50 (Cbl-b) does the source give for `CC(C)[C@H]1CN(C)CCN1Cc1cc2c(c(C(F)(F)F)c1)CN(c1cccc(C3([C@@H](F)c4n[nH]cc4C(F)(F)F)COC3)c1)C2=O` [Compound 377, 2-(3-(3-((R)-fluoro(4-(trifluoromethyl)-1H-pyrazol-3-yl)methyl)oxetan-3-yl)phenyl)-6-(((S)-2-isopropyl-4-methylpiperazin-1-yl)methyl)-4-(trifluoromethyl)isoindolin-1-one] here?
The IC50 was 10000 nM.

And the IC50 (c-Cbl)?
The IC50 was 20000 nM.

What about the “(fold-selectivity)” value (c-Cbl) of the same compound?
The value was “(2.0x)”.

Which results are given for `CC(C)[C@H]1CN(C)CCN1Cc1cc2c(c(C(F)(F)F)c1)CN(c1cccc(C3([C@@H](F)c4nc(F)cn4C)COC3)c1)C2=O` [Compound 269, 2-(3-(3-((R)-fluoro(4-fluoro-1-methyl-1H-imidazol-2-yl)methyl)oxetan-3-yl)phenyl)-6-(((S)-2-isopropyl-4-methylpiperazin-1-yl)methyl)-4-(trifluoromethyl)isoindolin-1-one]?
IC50 (Cbl-b): 210 nM; IC50 (c-Cbl): 470 nM; (fold-selectivity) (c-Cbl): (2.3x)
